Tests used:
[1] = system: lesions in lymph nodes and bone of men with prostate cancer; test: Phase 1 cross-over study: whole-body and SPECT/CT lesion imaging; assay type: in vivo, human; conditions: patient with prior prostatectomy and rising PSA, FIG. 2C
Text: (§1) Pharmacokinetics, Biodistribution, Dosimetry, Metabolism & Excretion of compound represented by Formula (1) and Formula (2). Methods: Fourteen subjects (7 metastatic prostate cancer patients and 7 healthy, normal males) were enrolled in a phase 1, single-blind, randomized, cross-over study in which subjects were randomly administered a single dose (740 MBq; 20 mCi) of a compound represented by Formula (1) and a similar chemical analog, a compound represented by Formula (2), 14 days apart. […] (FIGS. 1 and 2A)

[2] = Phase 1 cross-over study: pharmacokinetics, biodistribution, dosimetry, excretion; assay type: in vivo, human
Text: as §1

PSMA = PSMA (Homo sapiens, UniProt Q04609); test: In vitro binding studies to PSMA; conditions: read-out: affinity of binding to PSMA
Text: As illustrated, the dimeric backbone of both Formula (1) and Formula (2) compounds contain carboxylate residues that bind to the basic substrate binding pockets of the protein. The radiolabel chelator is attached to the side chain carboxyl residue (Formula (1)) or the side chain amine group (Formula (2)) through an intervening linker.

Sequence of PSMA (Q04609 whole entry): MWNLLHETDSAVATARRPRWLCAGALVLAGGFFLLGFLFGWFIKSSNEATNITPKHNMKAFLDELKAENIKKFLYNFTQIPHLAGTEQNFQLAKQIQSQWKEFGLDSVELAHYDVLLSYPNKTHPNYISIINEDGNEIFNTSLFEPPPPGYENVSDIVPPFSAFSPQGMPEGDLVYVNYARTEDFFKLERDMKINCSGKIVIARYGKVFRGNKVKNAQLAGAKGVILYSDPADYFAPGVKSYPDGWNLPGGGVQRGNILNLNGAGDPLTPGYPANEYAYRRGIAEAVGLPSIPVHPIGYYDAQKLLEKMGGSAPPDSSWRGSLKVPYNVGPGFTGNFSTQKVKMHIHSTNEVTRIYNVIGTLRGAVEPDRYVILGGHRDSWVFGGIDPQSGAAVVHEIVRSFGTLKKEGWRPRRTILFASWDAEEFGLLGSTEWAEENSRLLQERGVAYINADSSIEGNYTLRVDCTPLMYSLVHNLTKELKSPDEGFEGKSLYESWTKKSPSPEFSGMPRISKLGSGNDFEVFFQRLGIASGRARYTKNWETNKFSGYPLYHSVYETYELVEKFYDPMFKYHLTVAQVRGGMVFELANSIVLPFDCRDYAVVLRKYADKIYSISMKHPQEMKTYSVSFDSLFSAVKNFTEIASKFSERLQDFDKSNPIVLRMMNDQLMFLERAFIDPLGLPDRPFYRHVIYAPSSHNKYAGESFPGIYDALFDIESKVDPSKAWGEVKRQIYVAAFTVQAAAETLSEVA

Row | period over which compound is cleared from blood ([2]; FIG. 1A) | physiological clearance rate ([2]; Formula (2) compared with Formula (1)) | rate of clearance from blood ([2]; Formula (2) compared with Formula (1), FIG. 1A) | clearance from these organs ([2]; Formula (2) compared with Formula (1), full body scans over 24 hours) | estimated radiation dose (dosimetry) ([2]; single dose 740 MBq (20 mCi)) | amount excreted in urine ([2]; urine samples over 30 hours post administration, Formula (2) compared with Formula (1), FIG. 1B) | Kd (PSMA) [nM] | Structure (SMILES) | detection of metastatic lesions compared with bone scan [1] | tissues of accumulation ([2]; in vivo pharmacokinetic and biodistribution studies)
1 | about 1500 minutes | more rapid | greater | clears more rapidly | within the clinically acceptable range | significantly greater amount |  | N[C@@H](CCCC[N+]12Cc3n(CC(=O)O)cc[n+]3[99Tc-2]1[n+]1ccn(CC(=O)O)c1C2)C(=O)NCCCCC(NC(=O)NC(CCC(=O)O)C(=O)O)C(=O)O.[C-]#[O+].[C-]#[O+].[C-]#[O+] (stereo partly drawn) [Formula (2)] | identified multiple foci of metastatic cancer not seen in the bone scan | liver, kidneys and salivary glands as well as the urinary bladder and prostate tissue
2 |  |  |  |  |  |  | 31 | N[C@@H](CCCC[N+]12Cc3n(CC(=O)O)cc[n+]3[Tc-2]1[n+]1ccn(CC(=O)O)c1C2)C(=O)NCCCCC(NC(=O)NC(CCC(=O)O)C(=O)O)C(=O)O.[C-]#[O+].[C-]#[O+].[C-]#[O+] (stereo partly drawn) [Formula (2)] |  | 
